This is an account of results in patent publication US9428733B2, “Method for obtaining pancreatic endocrine cells from adipose tissue-origin cells” (AKIFUMI MATSUYAMA, priority 2005, dated 2016).

This test relates to pancreatic islets obtained from adipose tissue-derived cells. Kind of test: Insulin secretion from pancreatic islets obtained from adipose tissue-derived cells, ELISA of culture supernatant. The class given is cell-based, Human. Particulars: 2 hours; for secretion of insulin: RPMI 1640 containing 3.3 mM or 16.7 mM glucose, FIG. 17. Here is the method:
The insulin level and the C-peptide level in the culture supernatant were measured using ELISA kit (Mercodia).
(In an ELISA, binding on a coated surface is turned into a signal by an enzyme label.)

For `CC(C)Cn1c(=O)n(C)c(=O)c2[nH]cnc21` [IBMX], the secretion of insulin result (100 μM) is on record as “promoted”. Same read-out and setting: the entry for `C[N+](C)(C)CCOC(N)=O` [carbachol] is “promoted”. Take `Cn1c(=O)c2[nH]cnc2n(C)c1=O` [theophylline]: the secretion of insulin entry (100 μM) is reported as “promoted”. Where the note is “10 mM theophylline control, 3.3 mM or 16.7 mM glucose, FIGS. 14-16”, the “amount (insulin, C-peptide) secreted by islets in medium containing theophylline versus medium without” value is recorded as “similar”.

Take `CCCCNC(=O)NS(=O)(=O)c1ccc(C)cc1` [tolbutamide]: where the note is “10 μM”, the secretion of insulin result is on record as “promoted”.
